Consider eleven compounds from patent US5321037A, “Isoxazole derivatives for use as cerebro-active drugs and central muscle relaxants” (Sankyo Company, Limited, priority 1986, dated 1994).

Counter-ions that a name gives are not always drawn. Like-named read-outs stand apart in the source and are kept apart here.

Data set [1] has as its system decerebrate rigidity in rats. Put plainly: Suppression of decerebrate rigidity in rats. In kind it is in vivo, rat. The source says: The suppression of decerebrate rigidity in laboratory animals, such as rats, is a well known model for control of human spasticity and/or rigidity.
In the test method, a rat was anesthetized with halothane and fixed on a stereotaxic apparatus (SR-5, Narishige). In accordance with the brain atlas by Pellegrino et al., [L. J. Pellegrino, A. S. Pellegrino & A. J. Cushman: A Stereotaxic Atlas of the Rat Brain, Plenum Press, New York and London (1967)], an electrode 0.7 mm in diameter, which was insulated except for 1 mm at the tip, was inserted bilaterally into the midbrain reticular formation (AP: 0, L: ±1.5, H: -3.0). A clip serving as the reference electrode was fixed on the temporal muscle. Through these electrodes, a high frequency electric current (100 KHz, 10 to 20 mA) was applied from a lesion generator (Glass Co., LM4A) for 2 to 3 minutes to cauterize electrically this brain region.
The rat was then immediately set free from the stereotaxic apparatus. A polyethylene cannula was inserted into the duodenum and fixed with an acrylic resin (Aron Alfa, Sankyo Co., Ltd.). After completion of these operations, halothane anesthesia was immediately discontinued.
After 1.5 hours, when the animal awoke from the anesthesia, the rat was fixed on an apparatus devised in our laboratory for a hind leg fixation. Both hind legs were fixed at the anterior part of the ankle joints. Both hindlimb paws were then pushed in 4 mm for 6 seconds in every minute. The resulting repulsive tension was drawn on a polygraph through a strain gauge.
The test compounds were suspended in a 0.5% w/v CMC (carboxymethyl cellulose) aqueous solution and were administered orally (p.o.) or intraperitoneally (i.p.).
The results are summarized in the following Table 7, where the compounds of the present invention are identified by the number of the foregoing Example in which each was prepared, Compound X is the known compound eperisone hydrochloride, and Compound Y is the known compound afloqualone.

Data set [2] deals with decerebrate rigidity (cats). Put plainly: Suppression of decerebrate rigidity (cats). It counts as in vivo, cat. To be noted: 50 mg/kg intraduodenal. The source says:
Adult cats each weight 3.0 to 4.5 kg were used. Under ether anesthesia, the trachea was cannulated and the common carotid arteries were ligated at both sides. The cat was decerebrated by suction at the precollicular level. Ether anesthesia was then immediately discontinued. A pair of needle electrodes was inserted into the neck muscle in order to pick up any EMG muscular discharges. The EMG discharge was amplified and recorded on a pen-writing recorder, along with an integration of the EMG discharge. Recording was started at least 2 hours after withdrawal of anesthesia. Blood pressure induced from the femoral artery, as well as body temperature and heart beat, were recorded and monitored throughout the experiment.
After stable EMG discharges were obtained, the test compounds suspended in 0.5% CMC solution were administered into the duodenum through a previously inserted cannula. The effect of the test compound was expressed as the ratio of the integrated EMG discharge after administration relative to the value before administration.

The test system of data set [3] is thiopental anesthesia. Kind of data set: Potentiation of thiopental anesthesia (mice). In kind it is in vivo, mouse (ddY strain). To be noted: for Anesthesia time: thiopental 30 mg/kg after one hour. As for the experimental part:
In the test method, male adult mice of ddY strain each weighing 20 to 30 g were used as divided groups each made up of 5 to 7 mice. Test compounds suspended in 0.5% CMC solution were orally administered. After one hour, thiopental (30 mg/kg) was injected into the tail vein, and the time required for the mouse to recover the righting reflex was measured.

For data set [4], the system named is spinal reflex in cats. Put plainly: Effect on spinal reflex in cats. It counts as in vivo, cat. As for the experimental part: Adult cats weighing 3.0 to 4.5 kg each were used. After induction of anesthesia with ether, the animal was anesthetized by intravenous injection of 50 mg/kg of a-chloralose. After the trachea was cannulated, the animal was fixed on a stereotaxic apparatus, and the lumbosacral spinal cord was exposed by laminectomy from L3 to S1. The ventral roots of the right side were cut from L6 to S1 as distal as possible and the cut ends were ligated with cotton thread previously immersed in Ringer's solution. The exposed spinal cord was covered with warmed mineral oil and maintained at 37° C. The ventral root, either L7 or S1, was fixed on a pair of platinum wire electrodes. A pair of collar-type electrodes was implanted on the ipsilateral tibial nerve and the saphenous nerve, for stimulation. After completion of all these operations, the cat was immobilized with pancronium bromide (0.5 mg/kg, i.v.) and maintained by artificial respiration (40/minute). Recording was started at least 2 hours after withdrawal of ether anesthesia. A single square pulse (0.01 to 0.1 msecond pulse width, supramaximal intensity) was applied to the nerve at a frequency of 0.3 Hz from an electronic stimulator. […] In a similar manner to Experiment 2, the blood pressure, heart beat and body temperature of the animal were recorded and monitored. Compounds to be tested were also administered in a similar manner.

Where [5] appears, read: Rattus norvegicus, ip, 50 mg/kg i.p., read-out: Maximum inhibition.
[6] abbreviates: Rattus norvegicus, po, 100 mg/kg p.o., read-out: Maximum inhibition.
The mark [7] stands for this setting: Rattus norvegicus, po, read-out: Maximum inhibition.

As to `Cc1cc(=O)n(CC(O)CN2CCOCC2)o1` (centres unmarked) [Compound 3a], in data set [1] (50 mg/kg i.p.), the “Duration of the effect” value is 50 min and the “Onset of the effect” value amounted to 5 min. The inhibition in vivo at 50 mg/kg in data set [1] (setting [5]) was determined as 30%.
As to `O=c1cc(-c2ccc(Cl)cc2)on1CC(O)CN1CCOCC1` (centres unmarked) [Compound 4a], in data set [1] (50 mg/kg i.p.), the “Duration of the effect” value was > 120 min and the “Onset of the effect” value was determined as 5 min. Further, the inhibition in vivo at 50 mg/kg in data set [1] (setting [5]) is 80%.
As to `CC(C)NCC(O)Cn1oc(-c2ccccc2)c(Cl)c1=O` (centres unmarked) [Compound 5a], in data set [1] (50 mg/kg i.p.), the “Duration of the effect” value is > 120 min and the “Onset of the effect” value stood at 5 min. For the same compound, the inhibition in vivo at 50 mg/kg in data set [1] (setting [5]) amounted to 95%.
For `CC(C)NCC(O)Cn1oc(-c2ccccc2)cc1=O` (centres unmarked) [Compound 6a], in data set [1] (50 mg/kg i.p.), the “Duration of the effect” value is 60 min and the “Onset of the effect” value turned out to be 5 min. Moreover, the inhibition in vivo at 50 mg/kg in data set [1] (setting [5]) turned out to be 30%.
Take `CC(C)NCC(O)Cn1oc(-c2ccc(Cl)cc2)cc1=O` (centres unmarked) [Compound 7a]: in data set [1] (50 mg/kg i.p.), the “Duration of the effect” value was determined as 60 min and the “Onset of the effect” value stood at 5 min. The inhibition in vivo at 50 mg/kg in data set [1] (setting [5]) is 75%.
For `CCc1ccc(C(=O)C(C)CN2CCCCC2)cc1` (centres unmarked) [Compound X, eperisone hydrochloride, reference compound], the “Duration of the effect” value is > 30 min in data set [1] (10 mg/kg p.o.), 45 min in data set [1] (30 mg/kg p.o.), 30 min in data set [1] (50 mg/kg p.o.) and 60 min in data set [1] (100 mg/kg p.o.). Moreover, the “Onset of the effect” value came out at 10 min in data set [1] (10 mg/kg p.o.), 10 min in data set [1] (30 mg/kg p.o.), 10 min in data set [1] (50 mg/kg p.o.) and 5 min in data set [1] (100 mg/kg p.o.). Also, in data set [1] (Rattus norvegicus, po, 10 mg/kg p.o., read-out: Maximum inhibition), the inhibition in vivo at 10 mg/kg turned out to be 30%. Further, the inhibition in vivo at 30 mg/kg in data set [1] (Rattus norvegicus, po, 30 mg/kg p.o., read-out: Maximum inhibition) was 30%. The inhibition in vivo at 50 mg/kg in data set [1] (Rattus norvegicus, po, 50 mg/kg p.o., read-out: Maximum inhibition) was 50%. For the same compound, the inhibition in vivo at 100 mg/kg in data set [1] (setting [6]) was 50%. For the same compound, the “Inhibition of decerebrate rigidity, in words” value in data set [2] is listed as “decerebrate rigidity was inhibited”. Moreover, the “Side effects (vomiting, changes in blood pressure and heart beat)” value in data set [2] was “induced vomiting immediately after administration accompanied with abrupt changes in blood pressure and heart beat”. In addition, the “Time after administration at which decerebrate rigidity returned” value in data set [2] was 30 min. The values for the Anesthesia time in data set [3] (10 mg/kg p.o.), in data set [3] (30 mg/kg p.o.) and in data set [3] (100 mg/kg p.o.) were 182.0 ± 9.8 s, 192.0 ± 18.3 s and 247.0 ± 34.9 s, respectively.
Turning to `Cc1ccccc1-n1c(CF)nc2ccc(N)cc2c1=O` [Compound Y, afloqualone, reference compound], in data set [1] (5 mg/kg p.o.), the “Duration of the effect” value is 60 min and the “Onset of the effect” value was 10 min. In data set [1] (10 mg/kg p.o.), the “Duration of the effect” value is 45 min and the “Onset of the effect” value came out at 10 min. In data set [1] (30 mg/kg p.o.), the “Duration of the effect” value worked out at 120 min and the “Onset of the effect” value was 10 min. Further, in data set [1] (setting [7]), the inhibition in vivo at 5 mg/kg stood at 25%, the inhibition in vivo at 10 mg/kg worked out at 55% and the inhibition in vivo at 30 mg/kg was determined as 70%. Further, the Anesthesia time in data set [3] (10 mg/kg p.o.) turned out to be 242.0 ± 10.0 s. Further, the “Prolongation of the duration of anesthesia, in words” value in data set [3] (30 mg/kg) is recorded as “did significantly prolong the duration of anesthesia”. Moreover, the Anesthesia time in data set [3] (30 mg/kg p.o.) was 4657.0 ± 636.6 s.
On to `Cc1c(-c2ccccc2)on(CC(O)CN2CCOCC2)c1=O.Cl` (centres unmarked) [Example 2, 2-(2-Hydroxy-3-morpholinopropyl)-4-methyl-5-phenyl-3-isoxazolone hydrochloride], for which, in data set [1] (100 mg/kg i.p.), the “Duration of the effect” value was > 90 min and the “Onset of the effect” value stood at 5 min. Besides, in data set [1] (Rattus norvegicus, ip, 100 mg/kg i.p., read-out: Maximum inhibition), the inhibition in vivo at 100 mg/kg is 60%.
Turning to `Cc1c(OCC(O)CN2CCOCC2)noc1-c1ccccc1` (centres unmarked) [Example 5, 3-(2-Hydroxy-3-morpholinopropoxy)-4-methyl-5-phenylisoxazole], in data set [1] (100 mg/kg p.o.), the “Duration of the effect” value is > 90 min and the “Onset of the effect” value was 5 min. The inhibition in vivo at 100 mg/kg in data set [1] (setting [6]) is 70%.
For the compound `NC(=O)OCC(O)Cn1oc2ccc(Cl)cc2c1=O` (centres unmarked) [Example 15, 2-(3-Carbamoyloxy-2-hydroxypropyl)-5-chloro-1,2-benzisoxazol-3-one], in data set [1] (50 mg/kg i.p.), the “Duration of the effect” value is > 60 min and the “Onset of the effect” value stood at 5 min. In addition, the inhibition in vivo at 50 mg/kg in data set [1] (setting [5]) stood at 50%.
Consider `NC(=O)OCC(O)COc1ccc(Cl)cc1` (centres unmarked) [chlorphenesin carbamate, reference compound], for which, in data set [4] (100 mg/kg), the “Effect on spinal reflexes, compared with Compounds 1a and 2a” value is on record as “A similar effect was observed”. Moreover, in data set [4] (in vivo), the “Mechanism shown by spinal reflexes” value is “interneuron blockers”.
